# Measured values as given in PubChem BioAssay AID1963870 (Molecular Pharmacology Branch, DTP, NCI, 2024).
# System: 292921-168-R-J2-PDC KRAS tumor spheroid viability
# Assay: Anticancer human tumor 292921-168-R-J2-PDC patient-derived pancreatic carcinoma cell line growth inhibition [KRAS2]
# Conditions: spheroids with HUVEC and MSC; for viability, T/C: stronger effect = lower value
# Source text: Multicellular complex tumor spheroid response to RAS pathway inhibitors in combination with a targeted agents in patient-derived cell lines with oncogenic KRAS variants from multiple cancer types
# A high-throughput screen of multi-cell type tumor spheroids was designed to identify active combinations of targeted small molecules and KRAS pathway inhibitors. Complex spheroids include a stromal component modeled by human endothelial cells (HUVEC) and fibroblasts modeled by human mesenchymal stem cells (MSCs). The concentration ranges selected for each drug and investigational agent were based upon clinically achievable concentrations if the clinical Cmax of the agent was known.
# Compounds. The drugs and investigational agents: BI-3406 (NSC825286), BAY-293 (NSC824723), batoprotafib (TNO155; NSC825523), sotorasib (AMG 510; NSC818433), MRTX1257 (NSC819558), elimusertib (BAY 1895344; NSC800525), molibresib (GSK525762; NSC774829), temuterkib (LY3214996; NSC803410), venetoclax (NSC766270), alisertib (NSC759677), olaparib (NSC753686), talazoparib (NSC767125), erdafitinib (NSC781556), ipatasertib (NSC767898), cabozantinib (NSC761068), nintedanib (NSC756659), abemaciclib (NSC768073), docetaxel (NSC628503), trametinib (NSC758246), and sapanisertib (NSC764658) were obtained from the National Cancer Institute (NCI) Developmental Therapeutics Program Chemical Repository. The FDA-approved anticancer drug set is available from the Developmental Therapeutics Program. […] The stock solutions were prepared in dimethyl sulfoxide (DMSO, Sigma-Aldrich, St. Louis, MO, cat. D2650) at 800-fold the tested concentration and stored at -70 degrees C prior to their use. All drugs and investigational agents were tested over a range starting from a high concentration at or near the clinical Cmax and decreasing in half-log increments. If the clinical Cmax for an agent had not been determined, the highest concentration tested was 10 microM.
# Cell Culture. All cells were maintained in an incubator at 37 degrees C and 5% CO2 with 95% humidity. The PDC lines were cultured according to standard operating procedures established by the NCI PDMR (https://pdmr.cancer.gov/sops/default.htm). Briefly, all PDCs were thawed and cultured in Matrigel-coated flasks prepared with a working solution of 1X Ham's F-12 nutrient mix, without supplementation (Invitrogen, Waltham, MA, cat. 11765054), 100 U/mL penicillin-streptomycin (Invitrogen, cat. 15140122), and 2.5% Matrigel (Corning Inc., Corning, NY, cat. 354248) for the first three passages. All PDCs were cultured in complete DMEM/F-12 media containing advanced DMEM/F-12 (Invitrogen, cat. 12634028), 4.9% defined fetal bovine serum, heat inactivated (HyClone Laboratories Inc., Logan, UT, cat. SH30070.03HI), 389 ng/mL hydrocortisone (Sigma-Aldrich, cat. H4001), 9.7 ng/mL human EGF recombinant protein (Invitrogen, cat. PHG0313), 23.4 microg/mL adenine (Sigma-Aldrich, cat. A2786), 97.3 U/mL penicillin-streptomycin (Invitrogen, cat. 15140122), 1.9 mM L-glutamine (Invitrogen, cat. 25030081), and 9.7 microM Y-27632 dihydrochloride (Tocris Bioscience, Bristol, United Kingdom, cat. 1254). The PDCs were cultured in complete DMEM/F12 media without 9.7 microM Y-27632 dihydrochloride for at least two passages prior to the screen. The established cell line HOP-62 was cultured in RPMI 1640 medium, HEPES (Invitrogen, cat. 22400105) with 10% defined fetal bovine serum (HyClone Laboratories Inc., cat. SH30070.03) and 2 mM L-glutamine (Invitrogen, cat. 25030081). The pooled donor HUVEC were cultured in endothelial cell growth medium 2 (PromoCell, Heidelberg, Germany, cat. C-22011) and the hMSC were cultured in mesenchymal stem cell growth medium 2 (PromoCell, cat. C-28009). For all experiments, HUVEC and hMSC were used at passages </=5, while the malignant cell lines were used at passages </=15. […]
# [1] = curve of first compound, second compound 0.1 µM
# [2] = curve of first compound, second compound 0.316 µM
# [3] = curve of first compound, second compound 1 µM
# [4] = curve of first compound, second compound 3.16 µM
# [5] = second compound 0.1 µM, first compound 0.0316 µM
# [6] = second compound 0.1 µM, first compound 0.1 µM
# [7] = second compound 0.1 µM, first compound 0.316 µM
# [8] = second compound 0.1 µM, first compound 1 µM
# [9] = second compound 0.1 µM, first compound 3.16 µM
# [10] = second compound 0.1 µM, first compound 10 µM
# [11] = second compound 0.316 µM, first compound 0.0316 µM
# [12] = second compound 0.316 µM, first compound 0.1 µM
# [13] = second compound 0.316 µM, first compound 0.316 µM
# [14] = second compound 0.316 µM, first compound 1 µM
# [15] = second compound 0.316 µM, first compound 3.16 µM
# [16] = second compound 0.316 µM, first compound 10 µM
# [17] = second compound 1 µM, first compound 0.0316 µM
# [18] = second compound 1 µM, first compound 0.1 µM
# [19] = second compound 1 µM, first compound 0.316 µM
# [20] = second compound 1 µM, first compound 1 µM
# [21] = second compound 1 µM, first compound 3.16 µM
# [22] = second compound 1 µM, first compound 10 µM
# [23] = second compound 3.16 µM, first compound 0.0316 µM
# [24] = second compound 3.16 µM, first compound 0.1 µM
# [25] = second compound 3.16 µM, first compound 0.316 µM
# [26] = second compound 3.16 µM, first compound 1 µM
# [27] = second compound 3.16 µM, first compound 3.16 µM
# [28] = second compound 3.16 µM, first compound 10 µM
# 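Also: drug exposure lasted seven days after spheroids formed for three days.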
# 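For viability, T/C in this document: percent of DMSO vehicle control viability which is 100%.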
Structure (SMILES),IC50 [1] [µM],IC50 [2] [µM],IC50 [3] [µM],IC50 [4] [µM],"viability, T/C [5] [%]","viability, T/C [6] [%]","viability, T/C [7] [%]","viability, T/C [8] [%]","viability, T/C [9] [%]","viability, T/C [10] [%]","viability, T/C [11] [%]","viability, T/C [12] [%]","viability, T/C [13] [%]","viability, T/C [14] [%]","viability, T/C [15] [%]","viability, T/C [16] [%]","viability, T/C [17] [%]","viability, T/C [18] [%]","viability, T/C [19] [%]","viability, T/C [20] [%]",also measured
COc1cc(Nc2ncc3c(n2)-c2ccc(Cl)cc2C(c2c(F)cccc2OC)=NC3)ccc1C(=O)O + C=CC(=O)N1CCN(c2nc(OCC3CCCN3C)nc3c2CCN(c2cccc4cccc(C)c24)C3)CC1CC#N,< 0.0316,< 0.0316,< 0.0316,< 0.0316,24.8,25.7,26.8,27.2,23.5,15.9,18.8,17.9,23.5,23.3,21.1,14.4,11.2,10.8,14.9,15.4,"IC50 (curve of first compound, second compound 0.0316 µM): < 0.0316 µM; viability, T/C (second compound 0.0316 µM, first compound 0.0316 µM): 28.8%; viability, T/C (second compound 0.0316 µM, first compound 0.1 µM): 25.6%; viability, T/C (second compound 0.0316 µM, first compound 0.316 µM): 28.7%; viability, T/C (second compound 0.0316 µM, first compound 1 µM): 29.4%; viability, T/C (second compound 0.0316 µM, first compound 3.16 µM): 26.1%; viability, T/C (second compound 0.0316 µM, first compound 10 µM): 17.1%; viability, T/C [21]: 14.2%; viability, T/C [22]: 10.3%; viability, T/C [23]: 0.22%; viability, T/C [24]: 0.2%; viability, T/C [25]: 0.13%; viability, T/C [26]: 1.99%; viability, T/C [27]: 0.44%; viability, T/C [28]: 0.41%"
CC1OCC2(CCN(c3cnc(Sc4ccnc(N)c4Cl)c(N)n3)CC2)C1N (centres undefined),,,,,,,,,,,,,,,,,,,,,"viability, T/C (compound 0.0316 µM): 86.4% [middle of 4 runs]; IC50 (compound alone, run of 08/26/2021): 696 nM [middle of 5 runs]; IC50 (compound alone, run of 09/02/2021): 524 nM [middle of 5 runs]; IC50 (curve of compound): 619 nM [middle of 5 runs]"
O=C(c1cc(Cc2n[nH]c(=O)c3ccccc23)ccc1F)N1CCN(C(=O)C2CC2)CC1 + COc1cc2nc(C)nc(NC(C)c3cc(N)cc(C(F)(F)F)c3)c2cc1OC1CCOC1,> 10,9.62,9.77,6.44,111,119,108,113,99.8,52.1,111,105,98.2,102,92.1,48,130,116,118,119,"IC50 (curve of first compound, second compound 10 µM): 9.86 µM; viability, T/C [21]: 88.7%; viability, T/C [22]: 49.2%; viability, T/C [23]: 86.7%; viability, T/C [24]: 82.5%; viability, T/C [25]: 76%; viability, T/C [26]: 75.7%; viability, T/C [27]: 63.2%; viability, T/C [28]: 41.6%; viability, T/C (second compound 10 µM, first compound 0.0316 µM): 83.8%; viability, T/C (second compound 10 µM, first compound 0.1 µM): 84.3%; viability, T/C (second compound 10 µM, first compound 0.316 µM): 77.9%; viability, T/C (second compound 10 µM, first compound 1 µM): 73.5%; viability, T/C (second compound 10 µM, first compound 3.16 µM): 85%; viability, T/C (second compound 10 µM, first compound 10 µM): 49.8%"
